Relative viability data for one cell line are collected here from the supplement of paper PMC10307832.

Test in all cases: relative viability (nuclei count vs DMSO), 5 days (fraction); higher = more cells survive
Compound in the assay “BAY61-3606 + Alpelisib”: COC1=C(C=C(C=C1)C2=CC3=NC=CN3C(=N2)NC4=C(C=CC=N4)C(=O)N)OC [BAY61-3606] + Cc1nc(NC(=O)N2CCC[C@H]2C(N)=O)sc1-c1ccnc(C(C)(C)C(F)(F)F)c1 [Alpelisib] (partner 2 µM)
The method in brief:
(§1)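 After 5 days of treatment, lung cancer cells in 1536-well plates were fixed and stained in a single step (final 0.05% Triton X-100, 1% formaldehyde, 1 ug/ml Hoechst) and their nuclei counted on 4× images. Treatment had been applied by pin tool the day after seeding as one drug alone or as a fixed anchor-drug dose with five library-drug doses (not always all listed) in √10 steps. Relative viability is the nuclei count of treated wells divided by that of vehicle wells, and values are medians of duplicate plates.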

Compound in the assay “BAY61-3606 + Decitabine”: COC1=C(C=C(C=C1)C2=CC3=NC=CN3C(=N2)NC4=C(C=CC=N4)C(=O)N)OC [BAY61-3606] + Nc1ncn([C@H]2C[C@H](O)[C@@H](CO)O2)c(=O)n1 [Decitabine] (partner 2 µM)
The method in brief: as §1

Compound in the assay “BAY61-3606 + Vorinostat”: COC1=C(C=C(C=C1)C2=CC3=NC=CN3C(=N2)NC4=C(C=CC=N4)C(=O)N)OC [BAY61-3606] + O=C(CCCCCCC(=O)Nc1ccccc1)NO [Vorinostat] (partner 1 µM)
The method in brief:
as §1

Compound in the assay “Doxorubicin + Lapatinib”: COc1cccc2c1C(=O)c1c(O)c3c(c(O)c1C2=O)C[C@@](O)(C(=O)CO)C[C@@H]3O[C@H]1C[C@H](N)[C@H](O)[C@H](C)O1 [Doxorubicin] + CS(=O)(=O)CCNCc1ccc(-c2ccc3ncnc(Nc4ccc(OCc5cccc(F)c5)c(Cl)c4)c3c2)o1 [Lapatinib] (partner 2 µM)
The method in brief:
as §1

On to UMC-11, for which the relative viability with BAY61-3606 + Alpelisib (first compound 0.02 µM) was found to be 1.01; with BAY61-3606 + Alpelisib (first compound 0.06325 µM), 1.09; with BAY61-3606 + Alpelisib (first compound 0.2 µM) it was 1.08; with BAY61-3606 + Alpelisib (first compound 0.6325 µM), 0.973; with BAY61-3606 + Alpelisib (first compound 2 µM) it was 0.912; with BAY61-3606 + Decitabine (first compound 0.02 µM), 0.65. Besides, the relative viability with BAY61-3606 + Decitabine (first compound 0.06325 µM) was determined as 0.476; with BAY61-3606 + Decitabine (first compound 0.2 µM) it was 0.601; with BAY61-3606 + Decitabine (first compound 0.6325 µM), 0.597; with BAY61-3606 + Decitabine (first compound 2 µM), 0.548; with BAY61-3606 + Vorinostat (first compound 0.02 µM), 0.43; with BAY61-3606 + Vorinostat (first compound 0.06325 µM), 0.385. Moreover, the relative viability stood at 0.436 with BAY61-3606 + Vorinostat (first compound 0.2 µM); 0.465 in the assay with BAY61-3606 + Vorinostat (first compound 0.6325 µM); 0.326 in the assay with BAY61-3606 + Vorinostat (first compound 2 µM); 1.22 with Doxorubicin + Lapatinib (first compound 0.001 µM); 1.13 with Doxorubicin + Lapatinib (first compound 0.003162 µM); 0.906 with Doxorubicin + Lapatinib (first compound 0.01 µM). In addition, the relative viability worked out at 0.514 with Doxorubicin + Lapatinib (first compound 0.03162 µM) and 0.456 with Doxorubicin + Lapatinib (first compound 0.1 µM).
